Assays:
MET = MET biochemical kinase assay; design: species or system human; concentration or dose not given beside the values
Description: A met biochemical kinase assay may be performed for met generally as described above for other kinases by substituting that or the other kinases. In particular, ELISA plates are coated with goat anti-rabbit Fc antibodies, which are used to capture commercially available (from Santa Cruz Biotechnology) rabbit polyclonal antibodies to the cytoplasmic domain of human MET. […] The chimeric receptors, or MET, from these lysates are captured on the antibody coated plates. After washing away extraneous proteins, test compounds are added and an in vitro kinase assay is performed by addition of an appropriate kinase buffer (containing ATP, divalent metal ions, etc.). Incorporation of phosphate into the captured receptors is detected with an anti-phosphotyrosine antibody conjugate with horse radish peroxidase using TMB as a substrate for colorimetric detection.

EGFR = target: T1, EGFR (Homo sapiens, UniProt P00533); assay: EGFR ELISA assay (in vitro kinase activity, EGFR captured from A431 cell lysate); format: biochemical; design: concentration or dose not given beside the values
T1 construct: Add 7 ug A431 cell lysate per well (EGFR source); endogenous in cells; host or cells: A431
Description: To provide a consistent method for measuring the in vitro kinase activity of the EGFR in an Enzyme-linked immunosorbent assay (Elisa).
Scope. The following protocol describes the procedures used to analyze protein tyrosine kinase activity on the EGFR in an Elisa. The procedure also describes the protocol for the initial screening of drugs for inhibition or activation of protein tyrosine kinase activity.
Reagents and Supplies. • 1. […] 05-101 monoclonal anti-EGFR antibody (commercially available from UB1) -80° C, 1 ml aliquots • 3. […] TBST Buffer Formulation: 50 mM Tris pH 7.2 150 mM NaCl 0.1% Triton X-100 • 5. Blocking Buffer Formulation: 5% Carnation Instant Milk in PBS • 6. A431 cell lysate A431 cells are available from a variety of commercial sources and may be used lysed using conventional methods known to those skilled in the art or as described for lysis of the 3T3 cells in the EGF cellular assay described herein. -80° C, 1 ml aliquots • 7. TBS Buffer Formulation: 50 mM Tris pH 7.2 150 mM NaCl • 8. […] NUNC 96-well V bottom polypropylene plates Applied Scientific Catalog # AS-72092 • 11. EDTA Formulation: 200 mM EDTA pH 8.0 • 12. […] Goat anti-rabbit IgG peroxidase conjugate Biosource Catalog # ALI0404 • 14. ABTS Solution Formulation: 100 mM Citric Acid (anhydrous) 250 mM Na2HPO4 pH 4.0 0.5 mg/ml ABTS (2,2'-azino-bis(3-ethylbenzthiazoline-6-sulfonic acid) (Sigma Catalog # A-1888) Keep solution in dark at 4 C until ready to use • 15. Hydrogen peroxide 30% solution Fisher Catalog # H325 Store in the dark at 4 C until ready to use • 16. ABTS/H2O2 Formulation: 15 mls ABTS solution 2 ul H2O2 Prepare 5 minutes before use and room temperature • 17. 0.2 M HCL stock in H2O Procedure. • 1. Coat Corning 96-well elisa plates with 0.5 ug per well 05-101 antibody. Bring final volume to 100 ul per well with PBS. Coat plates overnight at 4° C. • 2. Remove unbound 05-101 from wells by inverting plate to remove liquid. Wash 1x with distilled H2O by filling wells Pat the plate on a paper towel to remove excess liquid. • 3. Block plates with 5% milk in PBS. 150 ul per well. Incubate plate 30 minutes while shaking on a microtiter plate shaker. • 4. Wash plate 3x with dionized water, then once with TBST • 5. Add 7 ug A431 cell lysate per well (EGFR source). Add PBS to final volume of 100 ul per well Incubate 30 minutes while shaking. • 6. Wash as described in step 4. • 7. At this point, drugs or extracts are added to the wells. Dilute drugs/extracts 1:100 (unless specified otherwise) in TBS + 10% DMSO in 96-well polypropylene plates. Add 120 ul TBS to ELISA plate containing captured EGFR. Add 13.5 ul diluted drugs/extracts to ELISA plate. […] Incubate plate 30 minutes while shaking. • 8. […] (150 ul final volume in well with 3 uM ATP/5 mM MnCl2 final concentration in well.) Incubate 5 minutes while shaking vigorously. *NOTE: It is critical that ATP/MnCl2 phosphorylates the receptor for 5 minutes only. It is best to add the ATP/MnCl2 with an 12 channel pipettor 1 row at a time leaving 20 seconds between each row so that the reaction may be stopped with EDTA exactly 5 minutes later (this depends on the number of plates being phosphorylated in one batch). Shake between each addition. • 9. After 5 minutes, to stop reaction, add 16.5 ul of 200 mM EDTA pH 8.0 for 20 mM final in well, shaking continuously between each addition. This is done using the same timing method as above. After last row has received EDTA, shake plate an additional minute. • 10. Wash 4x with deionized water, twice with TBST. • 11. Add rabbit polyclonal anti-phosphotyrosine serum. Dilute 1:3000 in TBST. Add 100 ul per well. Incubate 30-45 minutes while shaking. • 12. Wash as described above in step 4. • 13. Add BioSource anti-rabbit peroxidase conjugate antibody. Dilute 1:2000 in TBST. Add 100 ul per well. Incubate 30 minutes while shaking. • 14. Wash as described in step 4. • 15. Add 100 ul of ABTS/H2O2 solution to well. Incubate 5 to 10 minutes while shaking. Remove bubbles • 16. […]

T1 sequence (P00533 25-1210): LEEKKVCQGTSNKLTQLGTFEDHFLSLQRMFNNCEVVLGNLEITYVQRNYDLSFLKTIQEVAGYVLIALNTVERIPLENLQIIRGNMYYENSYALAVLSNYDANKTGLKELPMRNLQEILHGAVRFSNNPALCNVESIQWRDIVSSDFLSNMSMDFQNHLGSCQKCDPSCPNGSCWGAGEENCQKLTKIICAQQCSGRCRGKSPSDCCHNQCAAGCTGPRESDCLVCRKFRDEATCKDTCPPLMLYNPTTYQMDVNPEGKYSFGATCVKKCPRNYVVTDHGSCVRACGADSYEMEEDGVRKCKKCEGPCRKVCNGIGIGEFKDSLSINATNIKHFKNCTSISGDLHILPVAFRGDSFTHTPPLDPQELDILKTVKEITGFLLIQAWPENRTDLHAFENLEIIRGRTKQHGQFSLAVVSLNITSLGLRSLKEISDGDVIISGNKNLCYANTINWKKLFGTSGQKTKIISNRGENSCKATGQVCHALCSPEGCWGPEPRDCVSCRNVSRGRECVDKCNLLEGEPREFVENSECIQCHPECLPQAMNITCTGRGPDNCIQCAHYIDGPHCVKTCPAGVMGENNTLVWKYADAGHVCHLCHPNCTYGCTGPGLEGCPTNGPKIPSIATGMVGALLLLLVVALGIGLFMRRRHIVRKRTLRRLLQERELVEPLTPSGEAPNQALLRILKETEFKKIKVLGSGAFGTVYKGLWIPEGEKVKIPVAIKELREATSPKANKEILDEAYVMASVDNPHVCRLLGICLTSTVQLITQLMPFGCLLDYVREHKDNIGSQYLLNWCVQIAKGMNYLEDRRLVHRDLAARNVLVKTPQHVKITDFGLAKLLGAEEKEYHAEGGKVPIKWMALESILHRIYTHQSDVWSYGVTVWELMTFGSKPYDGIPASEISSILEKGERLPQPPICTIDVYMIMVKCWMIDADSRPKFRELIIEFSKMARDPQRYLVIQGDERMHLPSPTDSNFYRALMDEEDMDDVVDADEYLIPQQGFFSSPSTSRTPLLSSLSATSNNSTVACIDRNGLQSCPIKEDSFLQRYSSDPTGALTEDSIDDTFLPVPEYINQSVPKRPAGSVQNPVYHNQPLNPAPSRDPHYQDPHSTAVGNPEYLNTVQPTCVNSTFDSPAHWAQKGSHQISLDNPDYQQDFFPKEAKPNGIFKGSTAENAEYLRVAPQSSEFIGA

Structure (SMILES) | Met Kinase % Inhibition (MET) | Biochem EGFR %Inhibition (EGFR)
CN1C(=O)C(=C2C(=O)Nc3ccc(S(=O)(=O)N4CCOCC4)cc32)c2ccccc21 [10731/F10] | 48.1% | 7.9%
COc1ccc(C=C2C(=O)Nc3c(Br)cc(Br)cc32)cc1C(C)(C)C [10732/A05] | 20.5% | 4.6%
Cc1ccc2occ(C=C3C(=O)Nc4ccc(S(=O)(=O)N5CCOCC5)cc43)c(=O)c2c1 [10731/F06] | 20.9% | 7.2%
CN1C(=O)C(=C2C(=O)Nc3ccc(S(=O)(=O)Nc4ccc(C(F)(F)F)cc4)cc32)c2ccccc21 [10731/E10] | 35.5% | 25.1%
Cc1cc2occ(C=C3C(=O)Nc4ccc(CCCl)cc43)c(=O)c2cc1C [10731/G03] | 33.7% | 7.7%
COc1c(Cl)cc(C=C2C(=O)Nc3ccc(I)cc32)cc1C(C)(C)C [10732/B09] | 69.2% | 2.0%
CNS(=O)(=O)c1ccc2c(c1)C(=C1C(=O)N(C)c3ccccc31)C(=O)N2 [10731/D10] | 21.1% | 15.8%
COc1c(C(C)C)cc(C=C2C(=O)Nc3c(Br)cc(Br)cc32)cc1C(C)C [10732/A03] | 37.4% | 0.8%
CC(C)c1ccc2occ(C=C3C(=O)Nc4ccc(S(=O)(=O)Nc5ccc(C(F)(F)F)cc5)cc43)c(=O)c2c1 [10731/E05] | 82.2% | 17.7%
CNS(=O)(=O)c1ccc2c(c1)C(=Cc1coc3ccc(C)cc3c1=O)C(=O)N2 [10731/D06] | 59.7% | 23.2%
CNS(=O)(=O)c1ccc2c(c1)C(=Cc1cc(Cl)c(OC)c(C(C)(C)C)c1)C(=O)N2 [10732/D09] | 40.3% | -9.9%
CNS(=O)(=O)c1ccc2c(c1)C(=Cc1cc(Br)c(OC)c(C(C)(C)C)c1)C(=O)N2 [10732/D07] | 43.2% | -19.1%
O=C1Nc2ccc(S(=O)(=O)N3CCOCC3)cc2C1=Cc1c[nH]c(=O)[nH]c1=O [10731/F08] | 23.5% | 7.1%
C=C(C)C1CC=C(C=C2C(=O)Nc3ccc(S(=O)(=O)NC)cc32)CC1 (stereo not shown) [10731/D04] | 24.5% | 15.8%
COc1c(Br)cc(C=C2C(=O)Nc3ccc(Br)c(C)c32)cc1C(C)(C)C [10732/C07] | 26.5% | -28.6%
CNS(=O)(=O)c1ccc2c(c1)C(=Cc1cc(C(C)C)c(OC)c(C(C)C)c1)C(=O)N2 [10732/D03] | 24.9% | -18.7%
COc1c(Br)cc(C=C2C(=O)Nc3ccc(I)cc32)cc1C(C)(C)C [10732/B07] | 75.1% | 15.8%
CC(C)(C)c1cc(C=C2C(=O)Nc3c(Br)cc(Br)cc32)cc(Br)c1OCc1ccccc1 [10732/A08] | 32.7% | 12.1%
O=C1Nc2ccc(S(=O)(=O)N3CCOCC3)cc2C1=Cc1coc2ccc([N+](=O)[O-])cc2c1=O [10731/F07] | 34.7% | 37.7%

Structure (SMILES) | Met Kinase % Inhibition (MET) | Biochem EGFR %Inhibition (EGFR)
CC(C)c1ccc2occ(C=C3C(=O)Nc4ccc(S(=O)(=O)N5CCOCC5)cc43)c(=O)c2c1 [10731/F05] | 84.4% | 19.5%
COc1ccc2[nH]cc(C=C3C(=O)Nc4ccc(S(=O)(=O)N5CCOCC5)cc43)c2c1 [10731/F09] | 20.5% | -0.7%
COc1c(C(C)C)cc(C=C2C(=O)Nc3ccc(I)cc32)cc1C(C)C [10732/B03] | 58.1% | -15.3%
COc1c(I)cc(C=C2C(=O)Nc3ccc(I)cc32)cc1C(C)(C)C [10732/B11] | 73.7% | 9.3%
CC(C)(C)c1cc(C=C2C(=O)Nc3ccc(I)cc32)ccc1OCc1ccccc1 [10732/B06] | 74.3% | 12.8%
COc1c(Cl)cc(C=C2C(=O)Nc3c(Br)cc(Br)cc32)cc1C(C)(C)C [10732/A09] | 60.3% | 39.7%
O=C1Nc2ccc(CCCl)cc2C1=Cc1coc2ccc([N+](=O)[O-])cc2c1=O [10731/G07] | 10.9% | 0.7%
CNS(=O)(=O)c1ccc2c(c1)C(=Cc1cc(C(C)C)c(Oc3ccccc3)c(C(C)C)c1)C(=O)N2 [10732/D04] | 40.7% | -11.4%
CNS(=O)(=O)c1ccc2c(c1)C(=Cc1coc3ccc([N+](=O)[O-])cc3c1=O)C(=O)N2 [10731/D07] | 45.9% | 25.9%
COc1ccc(C=C2C(=O)Nc3ccc(Br)c(C)c32)cc1C(C)(C)C [10732/C05] | 18.5% | -22.8%
COc1ccc2[nH]cc(C=C3C(=O)Nc4ccc(CCCl)cc43)c2c1 [10731/G09] | 4.4% | 8.9%
Cc1c(Br)ccc2c1C(=Cc1cc(C(C)C)c(Oc3ccccc3)c(C(C)C)c1)C(=O)N2 [10732/C04] | 30.6% | -14.7%
CNS(=O)(=O)c1ccc2c(c1)C(=Cc1coc3ccc(C(C)C)cc3c1=O)C(=O)N2 [10731/D05] | 92.7% | 53.9%
Cc1cc2occ(C=C3C(=O)Nc4ccc(S(=O)(=O)Nc5ccc(C(F)(F)F)cc5)cc43)c(=O)c2cc1C [10731/E03] | 20.7% | 10.4%
CC(C)c1cc(C=C2C(=O)Nc3ccc(I)cc32)cc(C(C)C)c1Oc1ccccc1 [10732/B04] | 79.5% | -22.1%
O=C1Nc2ccc(S(=O)(=O)Nc3ccc(C(F)(F)F)cc3)cc2C1=Cc1c[nH]c(=O)[nH]c1=O [10731/E08] | 59.0% | 40.1%
Cc1ccc2occ(C=C3C(=O)Nc4ccc(S(=O)(=O)Nc5ccc(C(F)(F)F)cc5)cc43)c(=O)c2c1 [10731/E06] | 37.7% | 10.4%
Cc1c(Br)ccc2c1C(=Cc1ccco1)C(=O)N2 [10718/C10] | 4.4% | -18.7%
Cc1ccc2occ(C=C3C(=O)Nc4ccc(CCCl)cc43)c(=O)c2c1 [10731/G06] | 33.3% | 2.3%
